Biological target: T1, peptide deformylase (Escherichia coli, UniProt P0A6K3)
T1 construct: made in house
Experiment: Peptide deformylase assay (continuous / discontinuous, f-ML-pNA substrate coupled with Aeromonas aminopeptidase)
Assay type: biochemical
Conditions: tested as a 1:1 mixture of diastereomers; read-out: IC50 against peptide deformylase
Description: The dipeptide substrate, N-formyl-methionylleucyl-p-nitroanilide (f-ML-pNA) is first deformylated by the peptide deformylase to give the corresponding dipeptide with a free amino terminus, which is a substrate for an aminopeptidase from Aeromonas proteolytica (Sigma Chemical Company). Sequential action by the aminopeptidase releases p-nitroaniline, a chromophore which can be detected spectrophotometrically. Peptide deformylase enzyme is prepared as described in Rajagopalan et al., Biochemistry (1997) 36:13910-13918. The dipeptide substrate is prepared as described in Wei and Pei (1997) Anal. Biochem. 250:29-34. Assays are carried out at 23° C. Assays are performed in polystyrene cuvettes which contain 50 mM potassium phosphate, pH 7.0, 100 μM ethylene glycol bis(b-aminoethyl ether)-N,N′-tetraacetic acid (EGTA), 0 to 200 μM peptide substrate, and 0.8 unit Aeromonas aminopeptidase. […] Reactions are monitored continuously at 405 nm in a Perkin-Elmer λ3 UV/VIS spectrophotometer, and the initial rates are calculated from the early part of the reaction progression curves (<60 s). […]
Discontinuous reactions are carried out in a buffer containing 50 mM potassium phosphate, pH 7.0, 100 μM EGTA, and 0 to 200 μM peptide substrate (total volume 250 or 500 μl). […] The amount of p-nitroaniline released is determined by measuring its absorbance at 405 nm. […]

T1 sequence (P0A6K3 whole entry): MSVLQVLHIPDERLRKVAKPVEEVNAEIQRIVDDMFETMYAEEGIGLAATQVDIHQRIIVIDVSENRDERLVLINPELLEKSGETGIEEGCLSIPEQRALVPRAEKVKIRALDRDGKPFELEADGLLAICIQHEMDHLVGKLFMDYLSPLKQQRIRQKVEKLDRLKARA

Structure (SMILES)	IC50 [µM]
CCCCC(CS)C(=O)N[C@@H](CC(C)C)C(=O)Nc1ccc([N+](=O)[O-])cc1 (mixture of isomers) [Compound 110]	< 10
CCCCC(CS)C(=O)N[C@H](C(=O)N1CCC[C@H]1CO)C(C)C (mixture of isomers) [Compound 111]	< 10
